Experimental data: PubChem BioAssay AID1745844 (Carcinogenic Potency Database (CPDB), 2022)
Calls of active or inactive are those of the source. The rule behind the calls is not given here.

Tested on: rodent lifetime carcinogenesis bioassay, tumor incidence TD50
Experiment: carcinogenic potency in animals, long-term in vivo studies, CPDB compilation (AID 1745844)

SMILES: Cc1ccc2ccccc2c1
- TD50 (mouse, strain B6C3F1, females, in feed, site: liver, lesion: hepatocellular adenoma, dosed 81 weeks, study length 81 weeks): 6060 mg/kg/day
- TD50 (mouse, strain B6C3F1, females, in feed, site: lung, lesion: several types, types named in the paper, dosed 81 weeks, study length 81 weeks): 4010 mg/kg/day
- TD50 (mouse, strain B6C3F1, males, in feed, site: lung, lesion: alveolar/bronchiolar adenoma, dosed 81 weeks, study length 81 weeks): 735 mg/kg/day
- TD50 (mouse, strain B6C3F1, males, in feed, site: lung, lesion: alveolar/bronchiolar carcinoma, dosed 81 weeks, study length 81 weeks): 2780 mg/kg/day
- TD50 (mouse, strain B6C3F1, males, in feed, site: lung, lesion: several types, types named in the paper, dosed 81 weeks, study length 81 weeks): 205 mg/kg/day

SMILES: CCCc1ccc2c(c1)OCO2
- TD50 (mouse, strain B6AKF1, females, oral dosing, site: any site (literature study), lesion: several types, types named in the paper, dosed 81 weeks, study length 81 weeks): 305 mg/kg/day
- TD50 (mouse, strain B6AKF1, females, oral dosing, site: liver, lesion: angioma, dosed 81 weeks, study length 81 weeks): 1400 mg/kg/day
- TD50 (mouse, strain B6AKF1, females, oral dosing, site: lung, lesion: adenoma, dosed 81 weeks, study length 81 weeks): 739 mg/kg/day
- TD50 (mouse, strain B6AKF1, females, oral dosing, site: stomach, lesion: papilloma, dosed 81 weeks, study length 81 weeks): 84.7 mg/kg/day
- TD50 (mouse, strain B6AKF1, males, oral dosing, site: any site (literature study), lesion: several types, types named in the paper, dosed 81 weeks, study length 81 weeks): 86.6 mg/kg/day
- TD50 (mouse, strain B6AKF1, males, oral dosing, site: liver, lesion: hepatoma, dosed 81 weeks, study length 81 weeks): 117 mg/kg/day
- TD50 (mouse, strain B6AKF1, males, oral dosing, site: lung, lesion: adenoma, dosed 81 weeks, study length 81 weeks): 323 mg/kg/day
- TD50 (mouse, strain B6AKF1, males, oral dosing, site: lung, lesion: several types, types named in the paper, dosed 81 weeks, study length 81 weeks): 448 mg/kg/day
- TD50 (mouse, strain B6C3F1, females, oral dosing, site: any site (literature study), lesion: several types, types named in the paper, dosed 81 weeks, study length 81 weeks): 170 mg/kg/day
- TD50 (mouse, strain B6C3F1, females, oral dosing, site: lung, lesion: adenoma, dosed 81 weeks, study length 81 weeks): 230 mg/kg/day
- TD50 (mouse, strain B6C3F1, males, oral dosing, site: any site (literature study), lesion: several types, types named in the paper, dosed 81 weeks, study length 81 weeks): 107 mg/kg/day
- TD50 (mouse, strain B6C3F1, males, oral dosing, site: liver, lesion: hepatoma, dosed 81 weeks, study length 81 weeks): 90 mg/kg/day
- TD50 (mouse, strain B6C3F1, males, oral dosing, site: lung, lesion: adenoma, dosed 81 weeks, study length 81 weeks): 358 mg/kg/day
- TD50 (rat, strain Osborne-Mendel, both sexes, in feed, site: esophagus, lesion: several types, types named in the paper, dosed 104 weeks, study length 104 weeks): 143 mg/kg/day

SMILES: CC(C)[N+](=O)[O-]
- carcinogen call (rat, strain Sprague-Dawley, females, inhaled, site: any site (literature study), lesion: benign tumor, dosed 52 weeks, study length 52 weeks): negative (inactive)
- carcinogen call (rat, strain Sprague-Dawley, females, inhaled, site: any site (literature study), lesion: benign tumor, dosed 52 weeks, study length 95 weeks): negative (inactive)
- carcinogen call (rat, strain Sprague-Dawley, females, inhaled, site: any site (literature study), lesion: benign tumor, dosed 95 weeks, study length 95 weeks): negative (inactive)
- carcinogen call (rat, strain Sprague-Dawley, females, inhaled, site: any site (literature study), lesion: malignant tumor, dosed 52 weeks, study length 52 weeks): negative (inactive)
- carcinogen call (rat, strain Sprague-Dawley, females, inhaled, site: any site (literature study), lesion: malignant tumor, dosed 52 weeks, study length 95 weeks): negative (inactive)
- carcinogen call (rat, strain Sprague-Dawley, females, inhaled, site: any site (literature study), lesion: malignant tumor, dosed 95 weeks, study length 95 weeks): negative (inactive)
- carcinogen call (rat, strain Sprague-Dawley, females, inhaled, site: liver, lesion: one or several types, types not named, dosed 52 weeks, study length 52 weeks): negative (inactive)
- carcinogen call (rat, strain Sprague-Dawley, females, inhaled, site: liver, lesion: one or several types, types not named, dosed 52 weeks, study length 95 weeks): negative (inactive)
- TD50 (rat, strain Sprague-Dawley, females, inhaled, site: liver, lesion: one or several types, types not named, dosed 95 weeks, study length 95 weeks): 293 mg/kg/day (inactive)
- TD50 (rat, strain Sprague-Dawley, males, inhaled, site: any site (literature study), lesion: benign tumor, dosed 52 weeks, study length 52 weeks): 9.06 mg/kg/day (inactive)
- TD50 (rat, strain Sprague-Dawley, males, inhaled, site: any site (literature study), lesion: benign tumor, dosed 52 weeks, study length 95 weeks): 7.78 mg/kg/day (inactive)
- carcinogen call (rat, strain Sprague-Dawley, males, inhaled, site: any site (literature study), lesion: benign tumor, dosed 95 weeks, study length 95 weeks): negative (inactive)
- carcinogen call (rat, strain Sprague-Dawley, males, inhaled, site: any site (literature study), lesion: malignant tumor, dosed 52 weeks, study length 52 weeks): negative (inactive)
- TD50 (rat, strain Sprague-Dawley, males, inhaled, site: any site (literature study), lesion: malignant tumor, dosed 52 weeks, study length 95 weeks): 23.6 mg/kg/day (inactive)
- carcinogen call (rat, strain Sprague-Dawley, males, inhaled, site: any site (literature study), lesion: malignant tumor, dosed 95 weeks, study length 95 weeks): negative (inactive)
- carcinogen call (rat, strain Sprague-Dawley, males, inhaled, site: liver, lesion: angioma, dosed 52 weeks, study length 95 weeks): negative (inactive)
- carcinogen call (rat, strain Sprague-Dawley, males, inhaled, site: liver, lesion: angioma, dosed 95 weeks, study length 95 weeks): negative (inactive)
- carcinogen call (rat, strain Sprague-Dawley, males, inhaled, site: liver, lesion: one or several types, types not named, dosed 52 weeks, study length 52 weeks): negative (inactive)

SMILES: CN(C)C=O
- TD50 (mouse, strain Charles River CD1, females, inhaled, site: liver, lesion: hepatocellular adenoma, dosed 78 weeks, study length 78 weeks): 15800 mg/kg/day (inactive)
- carcinogen call (mouse, strain Charles River CD1, males, inhaled, site: liver, lesion: hepatocellular adenoma, dosed 78 weeks, study length 78 weeks): negative (inactive)
- TD50 (mouse, strain Charles River CD1, males, inhaled, site: liver, lesion: hepatocellular carcinoma, dosed 78 weeks, study length 78 weeks): 3070 mg/kg/day (inactive)
- carcinogen call (rat, strain Charles River CD (Sprague-Dawley), females, inhaled, site: liver, lesion: hepatocellular adenoma, dosed 104 weeks, study length 104 weeks): negative (inactive)
- TD50 (rat, strain Charles River CD (Sprague-Dawley), males, inhaled, site: liver, lesion: hepatocellular adenoma, dosed 104 weeks, study length 104 weeks): 2640 mg/kg/day (inactive)
- TD50 (rat, strain Charles River CD (Sprague-Dawley), males, inhaled, site: liver, lesion: hepatocellular carcinoma, dosed 104 weeks, study length 104 weeks): 3340 mg/kg/day (inactive)

SMILES: CCN(N=O)C(N)=O
- TD50 (rat, strain F344/DuCrj, females, in drinking water, site: all sites, lesion: mononuclear-cell leukemia, dosed 103 weeks, study length 111 weeks): 0.151 mg/kg/day
- TD50 (rat, strain F344/DuCrj, females, in drinking water, site: any site (literature study), lesion: several types, types named in the paper, dosed 103 weeks, study length 111 weeks): 0.0687 mg/kg/day
- TD50 (rat, strain F344/DuCrj, females, in drinking water, site: brain, lesion: several types, types named in the paper, dosed 103 weeks, study length 111 weeks): 0.904 mg/kg/day
- TD50 (rat, strain F344/DuCrj, females, in drinking water, site: digestive tract, lesion: several types, types named in the paper, dosed 103 weeks, study length 111 weeks): 2.56 mg/kg/day
- TD50 (rat, strain F344/DuCrj, females, in drinking water, site: duodenum, lesion: several types, types named in the paper, dosed 103 weeks, study length 111 weeks): 7.68 mg/kg/day
- TD50 (rat, strain F344/DuCrj, females, in drinking water, site: mammary gland, lesion: adenocarcinoma, dosed 103 weeks, study length 111 weeks): 2.54 mg/kg/day
- TD50 (rat, strain F344/DuCrj, females, in drinking water, site: thyroid follicle, lesion: papillary adenoma, dosed 103 weeks, study length 111 weeks): 8.7 mg/kg/day
- TD50 (rat, strain F344/DuCrj, females, in drinking water, site: uterus, endometrium, lesion: sarcoma, dosed 103 weeks, study length 111 weeks): 2.56 mg/kg/day
- TD50 (rat, strain F344/DuCrj, females, in drinking water, site: uterus, lesion: adenoma, dosed 103 weeks, study length 111 weeks): 4.08 mg/kg/day
- TD50 (rat, strain F344/DuCrj, females, in drinking water, site: uterus, lesion: endometrial stromal polyp, dosed 103 weeks, study length 111 weeks): 0.883 mg/kg/day
- TD50 (rat, strain F344/DuCrj, males, in drinking water, site: any site (literature study), lesion: several types, types named in the paper, dosed 99 weeks, study length 111 weeks): 0.025 mg/kg/day
- TD50 (rat, strain F344/DuCrj, males, in drinking water, site: brain, lesion: several types, types named in the paper, dosed 99 weeks, study length 111 weeks): 0.997 mg/kg/day
- TD50 (rat, strain F344/DuCrj, males, in drinking water, site: digestive tract, lesion: several types, types named in the paper, dosed 99 weeks, study length 111 weeks): 1.15 mg/kg/day
- TD50 (rat, strain F344/DuCrj, males, in drinking water, site: duodenum, lesion: several types, types named in the paper, dosed 99 weeks, study length 111 weeks): 31.2 mg/kg/day
- TD50 (rat, strain F344/DuCrj, males, in drinking water, site: liver, lesion: neoplastic nodule, dosed 99 weeks, study length 111 weeks): 16.4 mg/kg/day
- TD50 (rat, strain F344/DuCrj, males, in drinking water, site: lung, lesion: adenocarcinoma, dosed 99 weeks, study length 111 weeks): 2 mg/kg/day
- TD50 (rat, strain F344/DuCrj, males, in drinking water, site: lung, lesion: adenoma, dosed 99 weeks, study length 111 weeks): 0.518 mg/kg/day
- TD50 (rat, strain F344/DuCrj, males, in drinking water, site: mammary gland, lesion: fibroma, dosed 99 weeks, study length 111 weeks): 0.889 mg/kg/day
- TD50 (rat, strain F344/DuCrj, males, in drinking water, site: peripheral nervous system, lesion: several types, types named in the paper, dosed 99 weeks, study length 111 weeks): 10.2 mg/kg/day
- TD50 (rat, strain F344/DuCrj, males, in drinking water, site: peritoneum, lesion: mesothelioma, dosed 99 weeks, study length 111 weeks): 0.109 mg/kg/day
- TD50 (rat, strain F344/DuCrj, males, in drinking water, site: subcutaneous tissue, lesion: fibroma, dosed 99 weeks, study length 111 weeks): 2.42 mg/kg/day
- TD50 (rat, strain F344/DuCrj, males, in drinking water, site: thyroid follicle, lesion: papillary adenocarcinoma, dosed 99 weeks, study length 111 weeks): 8.53 mg/kg/day
- TD50 (rat, strain F344/DuCrj, males, in drinking water, site: thyroid follicle, lesion: papillary adenoma, dosed 99 weeks, study length 111 weeks): 3.9 mg/kg/day

SMILES: CCN(CC)C(=S)[S-].CCN(CC)C(=S)[S-].[Cd+2]
- TD50 (mouse, strain B6AKF1, females, oral dosing, site: any site (literature study), lesion: several types, types named in the paper, dosed 76 weeks, study length 76 weeks): 47.5 mg/kg/day (inactive)
- carcinogen call (mouse, strain B6AKF1, females, oral dosing, site: liver, lesion: hepatoma, dosed 76 weeks, study length 76 weeks): negative (inactive)
- carcinogen call (mouse, strain B6AKF1, females, oral dosing, site: lung, lesion: adenoma, dosed 76 weeks, study length 76 weeks): negative (inactive)
- carcinogen call (mouse, strain B6AKF1, males, oral dosing, site: any site (literature study), lesion: several types, types named in the paper, dosed 76 weeks, study length 76 weeks): negative (inactive)
- carcinogen call (mouse, strain B6AKF1, males, oral dosing, site: liver, lesion: hepatoma, dosed 76 weeks, study length 76 weeks): negative (inactive)
- carcinogen call (mouse, strain B6AKF1, males, oral dosing, site: lung, lesion: adenoma, dosed 76 weeks, study length 76 weeks): negative (inactive)
- TD50 (mouse, strain B6C3F1, females, oral dosing, site: any site (literature study), lesion: several types, types named in the paper, dosed 76 weeks, study length 76 weeks): 18 mg/kg/day (inactive)
- carcinogen call (mouse, strain B6C3F1, females, oral dosing, site: liver, lesion: hepatoma, dosed 76 weeks, study length 76 weeks): negative (inactive)
- TD50 (mouse, strain B6C3F1, females, oral dosing, site: lung, lesion: adenoma, dosed 76 weeks, study length 76 weeks): 57.4 mg/kg/day (inactive)
- TD50 (mouse, strain B6C3F1, males, oral dosing, site: any site (literature study), lesion: several types, types named in the paper, dosed 76 weeks, study length 76 weeks): 6.2 mg/kg/day (inactive)
- TD50 (mouse, strain B6C3F1, males, oral dosing, site: liver, lesion: hepatoma, dosed 76 weeks, study length 76 weeks): 16.7 mg/kg/day (inactive)
- TD50 (mouse, strain B6C3F1, males, oral dosing, site: lung, lesion: adenoma, dosed 76 weeks, study length 76 weeks): 25.9 mg/kg/day (inactive)
